Experimental data as given in patent publication US9109001B2, “3′,5′-cyclic phosphoramidate prodrugs for HCV infection” (priority 2012, dated 2015).
Like-named read-outs stand apart in the source and are kept apart here.

Legend:
[1] = Stability in simulated intestinal fluid; format: in vitro ADME; conditions: 100 μM, 2 hours at 37° C.; percent of peak area at time zero
Method: Stability in Simulated Gastric and Intestinal Fluids: Simulated gastric and intestinal fluids containing pepsin and pancreatin respectively were prepared according to the U.S. Pharmacopoeia USP291 procedure (www.pharmacopeia.cn/v29240/usp29nf24s0_ris1s126.html). Test compound (final concentration 100 μM) was incubated in duplicate in the appropriate fluid for 2 hours at 37° C. The samples were quenched with 200 μl cold acetonitrile, vortexed for 30 seconds and then centrifuged at 16,100 g for 10 min. The supernatants were analyzed by HPLC on a C-18 column with UV detection at 252 nm. The time 0 samples were prepared by adding SGF or SIF fluid to the quenching solvent followed by the test compound. Stability of the compound was determined by peak area the test compound after incubation and calculated as percent of the peak area observed at time zero.

fresh human hepatocytes = assay: Release of active metabolite in fresh human hepatocytes; format: in vitro ADME; conditions: 10 μM
Method: Assay for the Release of Active Metabolite in Primary Hepatocytes: Plates of fresh human and mouse hepatocytes were obtained on ice. The medium was removed and replaced with hepatocyte culture medium (William's E supplemented with penicillin-streptomycin, 1% L-glutamine, 1% insulin-transferrin-selenium and 0.1 μM Dexamethasone (Invitrogen) or with Invitro GRO HI medium complemented with Torpedo antibiotics (Celsis)). Cells were left overnight in an incubator at 37° C. to acclimatize to culture and the medium.
Hepatocyte incubations were conducted at a final volume of 0.5 mL hepatocyte culture medium/well (0.8 million cells/well for human and 0.5 million cells/well for mouse; 12 well plate no overlay, collagen coat). Culture medium from overnight incubation of cells was removed and replaced with fresh medium, pre-warmed to 37° C., containing 10 μM of test compound from a stock solution in DMSO (final DMSO concentration was 0.1%). At each specific time point, incubation medium was removed and cell monolayers were carefully washed two times with ice-cold PBS. Following the last wash, all PBS was carefully removed and 1.0 mL of extraction solution (ice-cold 70% methanol/30% water) added. Cells were scraped off and suspended in the extraction solution, transferred to 2 mL polypropylene microfuge tubes and intracellular contents extracted overnight at −20° C.
After the overnight treatment the cellular extracts were prepared by centrifugation at 16,000×g for 10 min to remove cellular debris. The remaining sample was then dried using a refrigerated centrivap concentrator. Dry extracts were reconstituted in 1000 μL of HPLC-grade water and centrifuged at 16,000×g for 10 min. Aliquots (100 μL each) of the supernatant were transferred into a 96 well plate and internal standard (4 ng/mL final concentration) was added as the internal standard (IS) for LC-MS/MS analysis.
The incubation time points were 6, 24 and 48 hours for human hepatocytes and 1, 4, 8, 12 and 24 hours for mouse hepatocytes.

[2] = Stability in fresh human whole blood; format: in vitro ADME; conditions: 0.5 μM, percent unchanged test compound
Method: Stability in Fresh Whole Blood: Stability of test compounds were determined in fresh human whole blood with K2EDTA as the anticoagulant (stored refrigerated at 2-8° C. and used within 7 days of receipt). The experiment was conducted with three replicates for each time point. Whole blood, pre-incubated at 37° C. for 10-15 minutes, was fortified with a solution of test compound for a final concentration of 0.5 μM and mixed for 30 sec. At intervals (0, 0.5, 1 and 2 hr), three 50-μL aliquots were combined with 200 μL (each) of an ice-cold solution of the internal standard (carbutamide 500 ng/mL in acetonitrile). The samples were vortexed for 30 sec and then centrifuged at 16,100 g for 5 min. The supernatant was analyzed by LC-MS/MS. The MS peak area ratio of the test compound versus the internal standard was calculated and percent unchanged test compound was calculated for each time point using this ratio.

Zluc cells = assay: Cytotoxicity evaluation (CellTiter-Blue Cell Viability Assay); format: cell-based, human; conditions: read-out: HCV Replicon CC50
HCV genotype 1b replicon = assay: HCV Replicon Assay; format: cell-based; conditions: Zluc (Huh-7-derived) cells, HCV genotype 1b replicon, luciferase reporter, 72 hours, read-out: HCV Replicon EC50
Method: Huh-7-derived cell line (Zluc) that harbors an HCV genotype 1b replicon and a luciferase reporter gene was grown in Dulbecco's Modified Eagle Medium (DMEM) supplemented with 10% fetal bovine serum, 2 mM GlutaMAX, 1% MEM nonessential amino acids, 100 IU/mL penicillin, 100 μg/mL streptomycin, and 0.5 mg/mL Geneticin® (G418). For dose response testing the cells were seeded in 96-well plates at 7.5×10^3 cells per well in a volume of 50 μL, and incubated at 37° C./5% CO2. Drug solutions were made up freshly in Huh-7 media as 2× stocks. Ten additional 5-fold dilutions were prepared from these stocks in DMEM without G418. At least three hours after Zluc cells were seeded, drug treatment was initiated by adding 50 μL of drug dilutions to the plates in duplicate. Final concentrations of drug ranged from 100 μM to […]. Cells were then incubated at 37° C./5% CO2. Alternatively, compounds were tested at two concentrations (1 μM and 10 μM). […] For this, media was removed from the plates via gentle tapping. Fifty microliters of ONE-glo luciferase assay reagent was added to each well. The plates were shaken gently for 3 min at room temperature and luminescence was measured on a Victor^3 V 1420 multilabel counter (Perkin Elmer) with a 1 second read time using a 700 nm cut-off filter. The EC50 values were calculated from dose response curves from the resulting best-fit equations determined by Microsoft Excel and XLfit 4.1 software. When screening at two fixed concentrations, the results were expressed as % inhibition at 1 μM and 10 μM.

[3] = Cytotoxicity evaluation (CellTiter-Blue Cell Viability Assay); format: cell-based, human; conditions: human, Zluc cells, read-out: HCV Replicon CC50

For CCOc1nc(N)nc2c1ncn2[C@@H]1O[C@@H]2COP(=O)(N[C@@H](CC)COC(=O)C(C)C)O[C@H]2[C@@]1(C)F (single isomer, unassigned) [Compound 8 Diastereomer 2], the “Stability SIF” value [1] was 69%, the “FHH TP AUC (pmol · hr/mill cells)” value (fresh human hepatocytes) was 359 pmol · hr/mill cells and the “Stability WB_Human (37° C.; 2 hr)” value [2] was 1%. For the same molecule, the CC50 (Zluc cells) was > 50 µM and the EC50 (HCV genotype 1b replicon) was < 0.25 µM.

In the case of CCOc1nc(N)nc2c1ncn2[C@@H]1O[C@@H]2COP(=O)(N[C@@H](CC)COC(=O)C(C)C)O[C@H]2[C@@]1(C)F (single isomer, unassigned) [Compound 8 Diastereomer 1], the “Stability SIF” value [1] is reported as 15%, the “FHH TP AUC (pmol · hr/mill cells)” value (fresh human hepatocytes) is reported as 308 pmol · hr/mill cells and the “Stability WB_Human (37° C.; 2 hr)” value [2] is reported as 18%. For the same molecule, the CC50 [3] was > 50 µM and the EC50 (HCV genotype 1b replicon; Hepatitis C virus, 72 h) was < 0.25 µM.

For CCOc1nc(N)nc2c1ncn2[C@@H]1O[C@@H]2COP(=O)(N[C@@H](C)COC(=O)C(C)C)O[C@H]2[C@@]1(C)F (stereo partly drawn) [Compound 3], the CC50 [3] was > 50 µM and the EC50 (HCV genotype 1b replicon; Hepatitis C virus, 72 h) was < 0.25 µM.

In the case of CCOc1nc(N)nc2c1ncn2[C@@H]1O[C@@H]2COP(=O)(N[C@@H](C)C(=O)OC(C)C)O[C@H]2[C@@]1(C)O (single isomer, unassigned) [Compound 5 Diastereomer 2], the “Stability SIF” value [1] is reported as 77%, the “FHH TP AUC (pmol · hr/mill cells)” value (fresh human hepatocytes) is reported as 2108 pmol · hr/mill cells and the “Stability WB_Human (37° C.; 2 hr)” value [2] is reported as 83%. The CC50 (Zluc cells) was > 50 µM and the EC50 (HCV genotype 1b replicon) was 1 to 10 µM.

With CCOc1nc(N)nc2c1ncn2[C@@H]1O[C@@H]2COP(=O)(N[C@@H](C)C(=O)OCC(C)C)O[C@H]2[C@@]1(C)F (single isomer, unassigned) [Compound 4 Diastereomer 2] the “Stability SIF” value [1] was “BLD^a”, the “FHH TP AUC (pmol · hr/mill cells)” value (fresh human hepatocytes) was 1575 pmol · hr/mill cells and the “Stability WB_Human (37° C.; 2 hr)” value [2] was 1%. The CC50 (Zluc cells) was > 50 µM and the EC50 (HCV genotype 1b replicon) was < 0.25 µM.

With CCOc1nc(N)nc2c1ncn2[C@@H]1O[C@@H]2COP(=O)(N[C@@H](C)C(=O)OC3CCCC3)O[C@H]2[C@@]1(C)F (single isomer, unassigned) [Compound 10 Diastereomer 2] the “Stability SIF” value [1] was 67%, the “FHH TP AUC (pmol · hr/mill cells)” value (fresh human hepatocytes) was 2752 pmol · hr/mill cells and the “Stability WB_Human (37° C.; 2 hr)” value [2] was 80%. The CC50 (Zluc cells) was ≤ 50 µM and the EC50 (HCV genotype 1b replicon) was < 0.25 µM.

With CCOc1nc(N)nc2c1ncn2[C@@H]1O[C@@H]2COP(=O)(N[C@@H](C)C(=O)OC(C)C)O[C@H]2[C@@]1(C)O (single isomer, unassigned) [Compound 5 Diastereomer 1] the “Stability SIF” value [1] was 5%, the “FHH TP AUC (pmol · hr/mill cells)” value (fresh human hepatocytes) was 3615 pmol · hr/mill cells and the “Stability WB_Human (37° C.; 2 hr)” value [2] was 87%. For the same molecule, the CC50 [3] was > 50 µM and the EC50 (HCV genotype 1b replicon) was 0.25 to 1 µM.

In the case of CCOC(=O)C(C)(C)NP1(=O)OC[C@H]2O[C@@H](n3cnc4c(OCC)nc(N)nc43)[C@](C)(F)[C@@H]2O1 (single isomer, unassigned) [Compound 7 Diastereomer 1], the “Stability SIF” value [1] is reported as 91%, the “FHH TP AUC (pmol · hr/mill cells)” value (fresh human hepatocytes) is reported as 1148 pmol · hr/mill cells and the “Stability WB_Human (37° C.; 2 hr)” value [2] is reported as 96%. The CC50 [3] was > 50 µM and the EC50 (HCV genotype 1b replicon; Hepatitis C virus, 72 h) was 0.25 to 1 µM.

With CCOc1nc(N)nc2c1ncn2[C@@H]1O[C@@H]2COP(=O)(N[C@@H](C)C(=O)OC3CCCC3)O[C@H]2[C@@]1(C)F (single isomer, unassigned) [Compound 10 Diastereomer 1] the “Stability SIF” value [1] was 2%, the “FHH TP AUC (pmol · hr/mill cells)” value (fresh human hepatocytes) was 1944 pmol · hr/mill cells and the “Stability WB_Human (37° C.; 2 hr)” value [2] was 5%. For the same molecule, the CC50 [3] was > 50 µM and the EC50 (HCV genotype 1b replicon; Hepatitis C virus, 72 h) was < 0.25 µM.
